Results reported in publication PMC3418602 (2009).

Experiments:
Test in all cases: TR-FRET peptide phosphorylation kinase assay
Assay type in all cases: biochemical
JAK3 = JAK3 (Homo sapiens, UniProt P52333)
JAK1 = JAK1 (Homo sapiens, UniProt P23458)
JAK2 = JAK2 (Homo sapiens, UniProt O60674)
Chain of JAK2 (O60674 840-1132 limits assumed): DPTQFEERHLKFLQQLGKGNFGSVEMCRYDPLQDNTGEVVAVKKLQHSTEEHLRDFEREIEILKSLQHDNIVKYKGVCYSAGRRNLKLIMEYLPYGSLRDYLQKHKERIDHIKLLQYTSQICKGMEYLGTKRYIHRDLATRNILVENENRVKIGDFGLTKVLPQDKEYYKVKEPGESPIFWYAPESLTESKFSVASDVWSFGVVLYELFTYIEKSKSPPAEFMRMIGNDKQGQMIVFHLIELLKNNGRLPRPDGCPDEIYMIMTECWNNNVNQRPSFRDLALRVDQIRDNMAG

Chain of JAK3 (P52333 781-1124 limits assumed): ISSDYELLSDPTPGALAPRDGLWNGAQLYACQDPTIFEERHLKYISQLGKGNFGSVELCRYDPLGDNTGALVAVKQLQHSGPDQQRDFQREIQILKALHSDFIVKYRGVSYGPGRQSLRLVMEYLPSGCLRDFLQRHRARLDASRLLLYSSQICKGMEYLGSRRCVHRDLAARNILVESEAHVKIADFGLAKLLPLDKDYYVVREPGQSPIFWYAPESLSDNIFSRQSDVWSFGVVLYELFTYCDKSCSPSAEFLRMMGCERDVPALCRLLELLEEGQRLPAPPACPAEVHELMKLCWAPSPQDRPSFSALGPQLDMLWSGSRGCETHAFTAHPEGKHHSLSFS
Chain of JAK1 (P23458 850-1154 limits assumed): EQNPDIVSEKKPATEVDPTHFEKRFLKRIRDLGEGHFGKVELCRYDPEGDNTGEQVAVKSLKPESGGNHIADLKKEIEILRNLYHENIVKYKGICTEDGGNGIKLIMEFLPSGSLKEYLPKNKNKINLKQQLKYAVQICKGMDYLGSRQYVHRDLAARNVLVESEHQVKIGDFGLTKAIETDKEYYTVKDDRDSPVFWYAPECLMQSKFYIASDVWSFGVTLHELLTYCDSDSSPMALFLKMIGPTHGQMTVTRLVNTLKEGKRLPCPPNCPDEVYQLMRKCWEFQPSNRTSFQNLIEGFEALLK

IC50 (JAK3): 15.4 µM | IC50 (JAK1): 10.2 µM | IC50 (JAK2): 11.2 µM
Structure (SMILES): N#C/C(=C\c1ccc(O)c(O)c1)C(=O)NCc1ccccc1 [AG490]
